The record followed here is paper PMC10060354, “Discovery of a small molecule ligand of FRS2 that inhibits invasion and tumor growth” (Cellular Oncology, 2022).

One series concerns AGS. Briefly: SIA, collagen I invasion. The series is classed as cell-based. Particulars: Homo sapiens. As for the experimental part: (§1) 1000—2500 cells/well in 100 μl were seeded in 96 well Corning® Spheroid microplate (CLS4520, Sigma-Aldrich) or in cell-repellent 96 well microplate (650,790, Greiner Bio-one). SIA and analysis was performed as described before. In brief: After spheroid formation (24 – 72 h after seeding), 70 µl medium was removed and replaced with the collagen mixture (2.5 mg/ml Pure Col Collagen I (Advanced Biomatrix)), DMEM 1x (from 10 × stock, Sigma, D2429) and 0.4% Sodium bicarbonate (Sigma, S8761)), resulting in a final collagen concentration of 1.75 mg/ml. Embedded spheroids were stimulated with bFGF (100 ng/ml if not otherwise stated), HGF (30 ng /ml) or EGF (20 ng/ml) and distance of invaded cells quantified 24 – 48 h after embedding. Compounds and BGJ398 were added in Dimethylsulfoxid (DMSO) and corresponding DMSO concentrations were used in control samples.

The test system of a further series is SKOV3. Description: SIA, collagen I invasion. The series is classed as cell-based. Particulars: Homo sapiens. On the procedure: as §1
A further series deals with DAOY cells. Briefly: SIA, EGF-induced cell invasion. The series is classed as cell-based, human. Particulars: 10 µM. As for the experimental part: as §1
The next series has as its system human cancer cell lines. Briefly: CellTiter-Glo viability (2D culture or 3D spheroids), cell line panel. The note with it: for reduction of viability: DAOY, AGS and HCT116 cells, between 2.7 and 20 µM, 48 h. The series is classed as cell-based. As for the experimental part: Cell viability was determined using CellTiter-Glo® 2D or 3D cell viability assays (#G9242, #G9682, Promega). 500 cells/25 µl were seeded in flat bottom (#781,091, Greiner bio-one) or U-low adhesion (#4516, Corning) 384-well plate, 24 h prior to treatment. Increasing concentrations of compounds are deposited on cells using a HP Digital Drug Dispenser with DMSO total volume normalization. After 48 h, the CellTiter-Glo® 2D or 3D reagent was added (volume/volume) following manufacturer’s instructions. Plates were incubated at RT (room temperature) under agitation for 30 min and luminescence representing the number of viable cells was quantified with a Cytation 3 imaging reader (BioTek®). Experiments were performed independently three times with three technical replicas each.
In general terms: In ATP-based viability assays light output follows the ATP content of the culture.

Series [1] is described as follows: Solubility at the concentration required for the biophysical assays. The series is classed as physicochemical. The note with it: 5% DMSO.
The test system of a further series is Caco-2 cells. Briefly: CaCo-2 permeability (bi-directional). The note with it: Direction A2B. The method in brief: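 Caco-2 monolayers (passage 40–60) cultured 20 days on Transwells, equilibrated 40 min in HBSS; compound dosed apically (A-B) or basolaterally (B-A) with 1% v/v DMSO and lucifer yellow integrity marker, in duplicate. LC–MS/MS quantification; Papp from permeation rate, C0 and monolayer area; efflux ratio = Papp(B-A)/Papp(A-B).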
(In general: Passage across Caco-2 layers is used to estimate intestinal permeability.)

In another series the target is T1, GB1-FRS2-PTB (Homo sapiens, UniProt Q8WU20).
T1 construct: FRS2-PTB 11-140aa; 6xHis (N); made in house; host or cells: E. coli BL21 (DE3)
T1 sequence (Q8WU20 11-140): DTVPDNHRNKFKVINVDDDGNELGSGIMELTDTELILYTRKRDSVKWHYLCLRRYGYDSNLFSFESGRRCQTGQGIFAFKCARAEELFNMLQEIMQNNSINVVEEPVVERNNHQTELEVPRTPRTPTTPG
Briefly: Microscale thermophoresis (MST). Particulars: for Kd: GB1-FRS2_PTB; for binding by MST trace analysis (result in words): signal:noise ratio > 5 counts as binding. The series is classed as binding. On the procedure:
Protein labeling for MST was performed with the 2nd Generation BLUE-NHS dye. GB1-FRS2_PTB- was labelled at 20 μM with 60 μM dye and incubated for 30 min in the dark at room temperature. The labelling was performed in the protein buffer without arginine supplementation. It was rebuffered to protein buffer (100 mM sodium phosphate, 50 mM NaCl, 0.5 mM EDTA, 50 mM arginine, 1 mM TCEP, pH 7.0). The dye was subsequently removed by gravitational flow chromatography and the protein concentration determined by UV-spectroscopy. The assay was established with the FGFR_PEP. […] A total volume of 10 μl of 50 nM labelled protein was added to 10 μl of the peptide dilution series for a final labelled protein concentration of 25 nM. The samples were incubated for 15 min at RT. […] Temperature was set to 25 °C. Each measurement was repeated twice. The interaction was measured in duplicates for the non-DMSO-supplemented buffer and in triplicates for DMSO-supplemented buffer. […] The samples were incubated for 15 min, and MST assessed as described above. Each measurement was repeated twice. The interaction was measured in two independent duplicates. […] The mixture was then measured for their initial fluorescence once. MST-experiments were performed with MO.Control vers. 1.6 (NanoTemper Technologies, Munich, Germany) and data analyzed with MO.Analysis vers. 2.3 (NanoTemper Technologies, Munich, Germany). Data was plotted with GraphPad Prism vers. 8.3.0 (GraphPad Software, San Diego, USA).
(In general: In MST a laser heats a spot of the sample, and binding alters the fluorescence response.)

The mark [2] stands for this setting: read-out: KD, initial fluorescence change analysis.

“And” between values parts separate entries of the source, which are not always exact repeats. Identical values can stand only once. Like-named read-outs stand apart in the source and are kept apart here.

As usually defined, the EC50 is the concentration needed to bring the measured effect to its halfway point. Read a high EC50 as a need for much substance. Broadly, the IC50 is the midpoint of a concentration-inhibition curve. For orientation: Kd means the free concentration of one partner at which half of the binding sites on the other are occupied at equilibrium, for simple one-to-one binding. A word on the inhibition: it is the change of the read-out against control, counted positive when it falls. A higher inhibition goes with strong suppression.

Turning to `O=[N+]([O-])c1c(Cl)cc(O)c2c1C1C=CCC1C(c1ccc(Cl)cc1)N2` (stereo not drawn) [Compound 7], the EC50 in the series on AGS (100 ng/ml bFGF) turned out to be 4.66 µM; in the series with SKOV3 (SK-OV-3, 100 ng/ml bFGF), 4.5 µM. Also, the “effect on EGF-induced cell invasion (result in words)” value in the series on DAOY cells was “only moderately reduced”. Besides, the reduction of viability entry in the series on human cancer cell lines is on record as “more than 50%”. In addition, in the series with human cancer cell lines (Homo sapiens, read-out: IC50 of cell viability, all lines), the IC50 is below 20 µM. For the same compound, the “solubility for biophysical assays (result in words)” value in series [1] is recorded as “soluble in 5% DMSO”.

With `N#Cc1c(Cl)cc(O)c2c1C1C=CCC1C(c1ccc(Cl)cc1)N2` (stereo not drawn) [Compound 14], the “effect on EGF-induced cell invasion (result in words)” value in the series with DAOY cells is reported as “only moderately reduced”. In addition, the reduction of viability entry in the series on human cancer cell lines is given as “more than 50%”. In addition, the “Comments: A2B permeation (result in words)” value in the series with Caco-2 cells was “Test compound not detectable in receiver compartments A2B”.

As for `COc1ncc(C(C)NC2CC(C)(C)NC(C)(C)C2)cc1Cl` (stereo not drawn) [Compound 3.3], on GB1-FRS2-PTB (setting [2]), the Kd is 3.1 µM and 4 µM. Also, the “binding by MST trace analysis (result in words)” value at GB1-FRS2-PTB is recorded as “no binding was detected”.

As for `O=[N+]([O-])c1c(Cl)cc(O)c2c1C1C=CCC1C(c1ccc(Cl)cc1Cl)N2` (stereo not drawn) [Compound 8], the “Comments: A2B permeation (result in words)” value in the series on Caco-2 cells was “Test compound not detectable in receiver compartments A2B”. The “solubility for biophysical assays (result in words)” value in series [1] is “soluble in 5% DMSO”.

Regarding `CC(C)C[C@@H](CO)NCc1cc(O)c2cc(F)ccc2n1` [Compound 3.14], the inhibition at 10 µM in the series on AGS (10 µM) is around 50%; in the series with SKOV3 (SK-OV-3, 10 µM), around 50%. Further, the Kd at GB1-FRS2-PTB (fitting with signal-noise ratio < 5 is considered no binding, read-out: KD, MST trace analysis) is 150 µM and 400 µM; on GB1-FRS2-PTB (setting [2]) it was 19.6 µM and 12.8 µM and 12.8 to 19.6 µM. In addition, the “binding by MST trace analysis (result in words)” value at GB1-FRS2-PTB is recorded as “did show binding”.
